Assay results published in patent US9376442B2, “Methylpyrrolopyrimidinecarboxamides” (Takeda GmbH, priority 2009, dated 2016).

What follows are compounds tested against T1, PDE5A1 (Homo sapiens, UniProt O76074) (assay: Inhibition of type 5 phosphodiesterase (PDE5) activity, modified SPA test with human platelet lysate). Conditions: 0.5 μM cGMP, read-out: PDE5A1 inhibitory values [measured as −log IC50 (mol/l)] (converted).
T1 construct: from tissue; host or cells: human platelets from fresh donor blood (10,000 x g supernatant of sonicated lysate)
Assay type: biochemical
Method in brief: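 Scintillation proximity assay with [3H]cGMP tracer at 0.5 μM total cGMP, stopped after 15 min with beads containing IBMX. PDE3 and PDE2 activities suppressed with motapizone (1 μM) and a PDE2 inhibitor (10 nM). Human platelet supernatant served as the enzyme, with compound preincubated 5 min at 37° C; IC50 values from concentration-effect curves.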

IC50 | SMILES
< 1 nM | COCC(=O)N[C@H]1CC[C@H](NC(=O)c2c(C)[nH]c3c(-c4cc(C(C)=O)ccc4OCC4CC4)ncnc23)CC1 [Example E168, 4-[5-Acetyl-2-(cyclopropylmethoxy)phenyl]-N-{trans-4-[(methoxyacetyl)amino]cyclohexyl}-6-methyl-5H-pyrrolo[3,2-d]pyrimidine-7-carboxamide]
< 1 nM | COc1cc(-c2nc(C)nc3c(C(=O)NC4CCN(C(C)=O)CC4)c(C)[nH]c23)c(OCC2CC2)cc1F [Example E173, N-(1-Acetylpiperidin-4-yl)-4-[2-(cyclopropylmethoxy)-4-fluoro-5-methoxyphenyl]-2,6-dimethyl-5H-pyrrolo[3,2-d]pyrimidine-7-carboxamide]
< 1 nM | COCC(=O)N1CCC(NC(=O)c2c(C)[nH]c3c(-c4ccc(OC)cc4OCC4CC4)ncnc23)CC1 [Example E57, 4-[2-(Cyclopropylmethoxy)-4-methoxyphenyl]-N-[1-(methoxyacetyl)piperidin-4-yl]-6-methyl-5H-pyrrolo[3,2-d]pyrimidine-7-carboxamide]
1 to 10 nM | CC(=O)N1CC[C@@H](NC(=O)c2c(C)[nH]c3c(-c4cc(F)ccc4OCC4CC4)ncnc23)[C@H](O)C1 (relative stereo) [Example E49, N-[(3R*,4R*)-1-acetyl-3-hydroxypiperidin-4-yl]-4-[2-(cyclopropylmethoxy)-5-fluorophenyl]-6-methyl-5H-pyrrolo[3,2-d]pyrimidine-7-carboxamide]
< 1 nM | CC(=O)N[C@H]1CC[C@@H](NC(=O)c2c(C)[nH]c3c(-c4ccc(F)cc4OCC4CC4)ncnc23)CC1 [Example E25, N-(cis-4-acetamidocyclohexyl)-4-[2-(cyclopropylmethoxy)-4-fluorophenyl]-6-methyl-5H-pyrrolo[3,2-d]pyrimidine-7-carboxamide]
< 1 nM | Cc1[nH]c2c(-c3ccc(F)cc3OCC3CC3)ncnc2c1C(=O)NC1CCN(C(=O)[C@H](C)O)CC1 [Example F12, 4-[2-(Cyclopropylmethoxy)-4-fluorophenyl]-N-{1-[(2S)-2-hydroxypropanoyl]piperidin-4-yl}-6-methyl-5H-pyrrolo[3,2-d]pyrimidine-7-carboxamide]
< 1 nM | COc1cc(-c2ncnc3c(C(=O)N[C@H]4CN(C(=O)CO)CC[C@@H]4O)c(C)[nH]c23)c(OCC2CC2)cc1F (relative stereo) [Example F73, 4-[2-(Cyclopropylmethoxy)-4-fluoro-5-methoxyphenyl]-N-[(3S*,4S*)-1-glycoloyl-4-hydroxypiperidin-3-yl]-6-methyl-5H-pyrrolo[3,2-d]pyrimidine-7-carboxamide]
< 1 nM | COCC(=O)N[C@H]1CC[C@@H](NC(=O)c2c(C)[nH]c3c(-c4cc(OC)c(F)cc4OCC4CC4)ncnc23)CC1 [Example E112, 4-[2-(Cyclopropylmethoxy)-4-fluoro-5-methoxyphenyl]-N-{cis-4-[(methoxyacetyl)amino]cyclohexyl}-6-methyl-5H-pyrrolo[3,2-d]pyrimidine-7-carboxamide]
< 1 nM | COCC(=O)N1CCC(NC(=O)c2c(C)[nH]c3c(-c4ccc(F)cc4OCC4CC4)ncnc23)CC1 [Example E21, 4-[2-(Cyclopropylmethoxy)-4-fluorophenyl]-N-[1-(methoxyacetyl)piperidin-4-yl]-6-methyl-5H-pyrrolo[3,2-d]pyrimidine-7-carboxamide]
< 1 nM | CC(=O)c1ccc(OCC2CC2)c(-c2ncnc3c(C(=O)N[C@H]4CC[C@H](NC(=O)CO)CC4)c(C)[nH]c23)c1 [Example F104, 4-[5-Acetyl-2-(cyclopropylmethoxy)phenyl]-N-{trans-4-[(hydroxyacetyl)amino]cyclohexyl}-6-methyl-5H-pyrrolo[3,2-d]pyrimidine-7-carboxamide]
< 1 nM | COCC(=O)N1CCC(NC(=O)c2c(C)[nH]c3c(-c4cc(OC)c(F)cc4OCC4CC4)ncnc23)CC1 [Example E104, 4-[2-(Cyclopropylmethoxy)-4-fluoro-5-methoxyphenyl]-N-[1-(methoxyacetyl)piperidin-4-yl]-6-methyl-5H-pyrrolo[3,2-d]pyrimidine-7-carboxamide]
